A word on the IC50: it is the concentration that gives 50% inhibition.

Like-named read-outs stand apart in the source and are kept apart here.

The test system of one assay is AsPC-1. The assay can be described thus: Cell growth inhibition assay (AsPC-1). It counts as cell-based. Particulars: AsPC-1, 6 days incubation, CellTiter-Glo. In outline: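 AsPC-1 cells seeded at 1000 cells/well in RPMI-1640 with 10% FBS, attached overnight, then exposed to compound dilutions for 6 days at 37 °C/5% CO2. Viability read by CellTiter-Glo luminescence; IC50 from a 4-parameter logistic fit.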
A general note: Cellular ATP, detected with luciferase, serves as a proxy for viable cell number.

Assay [1] concerns AGS cells expressing KRAS G12D. Nature of the assay: Phospho-ERK1/2(THR202/TYR204) HTRF assay. Particulars: 2 hours incubation, read-out: AGS p-ERK IC50. The format is cell-based. In outline: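 Cells seeded 40,000/well, incubated overnight, then treated with compound in F12K with 0.1% FBS for 2 h at 37 °C. Lysates assayed for phospho-ERK1/2 by HTRF after 4 h at 25 °C; IC50 from 4-parameter logistic fit.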

Assay [2] addresses T1, GDP-loaded HIS-KRAS (G12D, aa 1-169) (Homo sapiens, UniProt P01116, G12D).
T1 construct: GDP-loaded HIS-KRAS (G12D, aa 1-169)
The assay can be described thus: SOS1 catalyzed nucleotide exchange assay. The format is biochemical. Particulars: SOS1 ExD, TR-FRET, 4 hours at 25° C. In outline: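 Compound was preincubated 15 min with 1.5 nM GDP-loaded KRAS G12D (final 5 nM GDP). SOS1 ExD (aa 564-1049, 0.5 µM), 80 nM BODIPY FL GTP and anti-His Tb antibody were then added for 4 h at 25 °C. The TR-FRET 515/486 ratio was normalized between DMSO and no-KRAS wells, and IC50 came from 4-parameter fits.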
In general terms: TR-FRET usually uses a lanthanide donor and a delayed reading to cut background.

A further assay deals with AGS. The assay can be described thus: Cell growth inhibition assay (AGS). The format is cell-based. Particulars: 6 days incubation, CellTiter-Glo. In outline:
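AGS cells in F12K/10% FBS plated at 500 cells/well, attached overnight, then exposed to compounds for 6 days at 37° C./5% CO2. Viability by CellTiter-Glo luminescence; IC50 from 4-parameter logistic fit.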

Assay [3] concerns the target T2, GppNp-loaded HIS-KRAS (G12D, aa 1-169) / cRAF RBD (Homo sapiens, UniProt P01116, G12D).
T2 construct: GppNp-loaded HIS-KRAS (G12D, aa 1-169)
The assay can be described thus: GTP-KRAS and cRAF interaction assay. The format is binding. Particulars: HTRF, 2 hours at 25° C. In outline:
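GppNp-loaded KRAS G12D (2.0 nM) preincubated 15 min with compound, then cRAF RBD (35 nM) and HTRF antibodies added for 2 h at 25° C with 100 μM GTP final. Ratios normalized to DMSO and no-KRAS controls; IC50 by 4-parameter fit.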

T1 sequence (P01116 1-169 isoform P01116-2 G12D): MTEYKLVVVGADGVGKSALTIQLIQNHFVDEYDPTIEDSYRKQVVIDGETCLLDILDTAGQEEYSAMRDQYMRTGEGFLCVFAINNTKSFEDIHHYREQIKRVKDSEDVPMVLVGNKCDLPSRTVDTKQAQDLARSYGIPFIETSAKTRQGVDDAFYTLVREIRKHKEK
T2 sequence (P01116 1-169 isoform P01116-2 G12D): as above

For `C#Cc1c(F)ccc2cc(O)cc(-c3ccc4c(N5CC6CCC(C5)N6)nc(OCC5(CN6CCCC(F)C6)CC5)nc4c3F)c12` (stereo not drawn) [Compound 74], the IC50 was 21.3 nM in the assay with AsPC-1 (Homo sapiens, ASPC1, 144 h); 12.4 nM in assay [1] (Homo sapiens); 10 nM in assay [2]; 4.41 nM with AGS (Homo sapiens, 144 h); 39.8 nM in assay [3].
Consider `C#Cc1cccc2cc(O)cc(-c3ccc4c(N5CC6CC(C5)N6)nc(OCC5(CN6CCOCC6)CC5)nc4c3F)c12` [Compound 55], for which the IC50 in the assay with AsPC-1 (Homo sapiens, ASPC1, 144 h) was determined as 649 nM; in assay [1] (Homo sapiens) it was 27.5 nM; in assay [2] it was 11.6 nM; in the assay with AGS (Homo sapiens, 144 h) it was 76.9 nM; in assay [3], 147 nM.
Turning to `C#Cc1c(F)ccc2cc(O)cc(-c3c(Cl)cc4c(C5CC6CCC(C5)N6)nc(OC[C@@]56CCCN5C[C@H](F)C6)nc4c3F)c12` (stereo partly drawn) [Compound 100], the 50% inhibitory concentration (IC50) came out at 33 nM with AsPC-1 (Homo sapiens, ASPC1, 144 h); 1.71 nM in assay [1] (Homo sapiens); 5.93 nM in assay [2]; 5.68 nM with AGS (Homo sapiens, 144 h); 55 nM in assay [3].
The corresponding values for `C#Cc1c(Cl)ccc2cc(O)cc(-c3ccc4c(N5CC6CCC(C5)N6)nc(OCC5(CN6CCOCC6)CC5)nc4c3F)c12` [Compound 127] are 24 nM, 2.61 nM, 1.18 nM, 1.82 nM and 15.7 nM.
Turning to `C#Cc1cccc2cc(O)cc(-c3ccc4c(N5CC6CCC(C5)N6)nc(OCC5(CN6CCCC6)CC5)nc4c3F)c12` [Compound 116], the IC50 in the assay on AsPC-1 (Homo sapiens, ASPC1, 144 h) worked out at 189 nM; in assay [1] (Homo sapiens) it was 10.8 nM; in assay [2] it was 12.5 nM; in the assay with AGS (Homo sapiens, 144 h), 20.8 nM; in assay [3], 110 nM.
The matching figures for `C#Cc1cccc2cc(O)cc(-c3cc4nc(OC[C@@]56CCCN5C[C@H](F)C6)nc(N5CC6CCC(C5)N6)c4cc3C)c12` [Compound 75]: 62.3 nM, 14.6 nM, 9.26 nM, 5.64 nM and 84.2 nM.
Take `C#Cc1cccc2cc(O)cc(-c3c(Cl)cc4c(N5CC6CCC(C5)N6)nc(OC[C@@]56CCCN5C[C@H](F)C6)nc4c3F)c12` (single isomer, unassigned) [Compound 72B]: the IC50 was found to be 48.7 nM in the assay on AsPC-1; 1.51 nM in assay [1]; 3.3 nM in assay [2]; 4.71 nM with AGS; 23 nM in assay [3].
In the case of `C#Cc1cccc2cc(O)cc(-c3ccc4c(N5CC6CCC(C5)N6)nc(OCC5(CN6CCSCC6)CC5)nc4c3F)c12` [Compound 78], the IC50 with AsPC-1 (Homo sapiens, ASPC1, 144 h) is 30.3 nM; in assay [1] (Homo sapiens), 31.6 nM; in assay [2] it was 8.8 nM; with AGS (Homo sapiens, 144 h), 4.04 nM; in assay [3], 99.8 nM.
As for `C#Cc1c(F)ccc2cc(O)cc(-c3ccc4c(N5CC6CCC(C5)N6)nc(OC[C@@]56CCCN5C[C@H](F)C6)nc4c3F)c12` [Compound 67], the IC50 worked out at 34.1 nM with AsPC-1 (Homo sapiens, ASPC1, 144 h); 3.72 nM in assay [1] (Homo sapiens); 8.77 nM in assay [2]; 6.92 nM in the assay on AGS (Homo sapiens, 144 h); 20.3 nM in assay [3].

For the origin of these results see US20240059710A1, “KRAS G12D Inhibitors” (Jacobio Pharmaceuticals Co., Ltd., priority 2020, published 2024).
